# Measured values as given in US6906205B2, “Spiro and dispiro 1,2,4-trioxolane antimalarials” (Medicines for Malaria Venture MMV, priority 2002, dated 2005).
# Test system: P. falciparum NF54 strain (sensitive to standard antimalarials)
# Assay: semiautomated microdilution assay, [3H]-hypoxanthine incorporation, NF54 strain
# Assay type: cell-based, Plasmodium falciparum
# Conditions: NF54 strain, 72 h incubation
# Outline: (§1)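 Asynchronous stock cultures → intraerythrocytic forms; semiautomated microdilution; IC50 by logit regression.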
row,Compound,IC50 (ng/ml) NF54 [ng/mL]
1,O=C(NC[C@H]1CC[C@]2(CC1)OO[C@]1(O2)C2CC3CC(C2)CC1C3)N1CCNCC1 [OZ329],0.68
2,CCCC1CCC2(CC1)OOC1(O2)C2CC3CC(C2)CC1C3 (centres unmarked) [OZ25],2.1

# Same assay, conditions: Plasmodium falciparum; NF54 strain, 72 h incubation; read-out: IC50 (ng/ml) NF54
row,Compound,IC50 [ng/mL]
1,c1ccc(C2CCC3(CC2)OOC2(O3)C3CC4CC(C3)CC2C4)cc1 (centres unmarked) [OZ27],4.8

# Test system: P. berghei ANKA strain
# Assay: treatment: 3x3 mg/kg and 3x1 mg/kg po divided doses in infected mice
# Assay type: in vivo, Plasmodium berghei
# Conditions: 3 × 1 mg/kg days 1, 2, 3 post-infection
# Experimental: Moro NMRI male mice (Fü Albino specific pathogen free) weighing 18±2 g were infected intravenously (i.v.) with 2×10^7 P. berghei ANKA strain-infected erythrocytes from donor mice on day 0 of the experiment. From donor mice with circa 30% parasitemia, heparinized blood was taken and diluted in physiological saline to 10^8 parasitized erythrocytes per ml. An aliquot (0.2 ml) of this suspension was injected i.v. into experimental and control groups of mice. In untreated control mice, parasitemia rose regularly to 40 to 50% by day 3 post-infection and 70 to 80% by day 4 post-infection. The mice died between days 5 and 7 post-infection. Throughout the experiments, mice were kept in groups of three or five animals in Makrolon type II cages in an air-conditioned animal room at 22 to 23° C. A diet with p-aminobenzoic acid (PABA) of 45 mg (NAFAG FUTTER© food N^o 9009 PAB-45) per kg of body weight, and tap water is available ad libitum.
# OZ compounds were prepared at an appropriate concentration, either as a solution or a suspension containing SSV (0.5% w/v CMC, 0.5% v/v benzyl alcohol, 0.4% v/v Tween 80, and 0.9% w/v sodium chloride in water). They were administered per os (p.o.) in a total volume of 0.01 ml per gram of mouse. The activity of the compound was determined by a variety of methods outlined in subsequent sections. Survival time was also recorded, and survival to day 30 post-infection was considered to be a cure.
# The second experiment consists of administration of divided 3×3 mg/kg and 3×1 mg/kg po doses administered on days 1, 2, and 3 post-infection. On day 4 post-infection, blood smears of all animals were prepared and stained with Giemsa. Parasitemia was determined microscopically, and the difference between the mean value of the control group (taken as 100%) and those of the experimental groups was calculated and expressed as percent reduction. Compounds were administered orally in the SSV vehicle.
row,Compound,Survival (days) p.o. SSV [days]
1,CS(=O)(=O)O.O=C(O)CNCC1CCC2(CC1)OOC1(O2)C2CC3CC(C2)CC1C3 (centres unmarked) [compound 309],9.4
2,CS(=O)(=O)O.NCCOc1ccc(C2CCC3(CC2)OOC2(O3)C3CC4CC(C3)CC2C4)cc1 (centres unmarked) [compound 323],14.4

# Same assay, conditions: 3 × 1 mg/kg days 1, 2, 3 post-infection, percent reduction of parasitemia day 4
row,Compound,Activity (%) p.o. SSV [%]
1,CS(=O)(=O)O.O=C(O)CNCC1CCC2(CC1)OOC1(O2)C2CC3CC(C2)CC1C3 (centres unmarked) [compound 309],66
2,CS(=O)(=O)O.NCCOc1ccc(C2CCC3(CC2)OOC2(O3)C3CC4CC(C3)CC2C4)cc1 (centres unmarked) [compound 323],66

# Same assay, conditions: 3×1 mg/kg po on days 1, 2, 3 post-infection, SSV
row,Compound,activity (percent reduction of parasitemia)
1,O=C(NC[C@H]1CC[C@]2(CC1)OO[C@]1(O2)C2CC3CC(C2)CC1C3)N1CCNCC1 [OZ329],greater than 99%

# Same assay, conditions: 3 × 3 mg/kg days 1, 2, 3 post-infection
row,Compound,Survival (days) p.o. SSV [days]
1,CS(=O)(=O)O.O=C(O)CNCC1CCC2(CC1)OOC1(O2)C2CC3CC(C2)CC1C3 (centres unmarked) [compound 309],9.2
2,CS(=O)(=O)O.NCCOc1ccc(C2CCC3(CC2)OOC2(O3)C3CC4CC(C3)CC2C4)cc1 (centres unmarked) [compound 323],14.4

# Same assay, conditions: 3 × 3 mg/kg days 1, 2, 3 post-infection, percent reduction of parasitemia day 4
row,Compound,Activity (%) p.o. SSV [%]
1,CS(=O)(=O)O.O=C(O)CNCC1CCC2(CC1)OOC1(O2)C2CC3CC(C2)CC1C3 (centres unmarked) [compound 309],99
2,CS(=O)(=O)O.NCCOc1ccc(C2CCC3(CC2)OOC2(O3)C3CC4CC(C3)CC2C4)cc1 (centres unmarked) [compound 323],99.95

# Same assay, conditions: 3×3 mg/kg po on days 1, 2, 3 post-infection, SSV
row,Compound,infected mice cured
1,O=C(NC[C@H]1CC[C@]2(CC1)OO[C@]1(O2)C2CC3CC(C2)CC1C3)N1CCNCC1 [OZ329],⅖

# Test system: ANKA strain of Plasmodium berghei
# Assay: single dose ED50/ED90/ED99 determinations in infected mice
# Assay type: in vivo
# Conditions: single dose po in SSV, mice, percent reduction in parasitemia on day three post-infection
# Experimental: In the single dose ED50/ED90/ED99 determinations, Moro SPF or NMRI mice (group of three) infected with the ANKA strain of Plasmodium berghei were treated on day one post-infection. […] The SSV consists of 0.5% w/v CMC, 0.5% v/v benzyl alcohol, 0.4% v/v Tween 80, and 0.9% w/v sodium chloride in water. Antimalarial activity was measured by percent reduction in parasitemia on day three post-infection. The ED50/ED90 values were calculated by nonlinear fitting.
Compound,ED90 [mg/kg],ED99 [mg/kg]
c1ccc(C2CCC3(CC2)OOC2(O3)C3CC4CC(C3)CC2C4)cc1 (centres unmarked) [OZ27],5.7,9.9

# Test system: Schistosoma mansoni adult schistosomes (49-day-old)
# Assay: effect on adult schistosomes (49-day-old) in mice
# Assay type: in vivo
# Conditions: single 400 mg/kg per os
# Experimental: Mice were infected with 100 Schistosoma mansoni cercariae […]. Each group was treated per os with OZ compounds at single doses of 200, 400, and 600 mg/kg. […] All groups were killed 4 weeks after treatment and the liver and intestine were removed and separated. The liver and intestine were compressed and alive male and female worms could be seen and counted.
Compound,"% reduction of adult worms growth at day 49 after per os application of 400 mg/kg, TWR (%)","adult worms at day 49, per os 400 mg/kg, DEAD WORM (%)"
O=C(NC[C@H]1CC[C@]2(CC1)OO[C@]1(O2)C2CC3CC(C2)CC1C3)N1CCNCC1 [OZ329],15,6
CCCC1CCC2(CC1)OOC1(O2)C2CC3CC(C2)CC1C3 (centres unmarked) [OZ25],46,34

# Test system: ANKA strain of P. berghei
# Assay: single dose STI in vivo screen in infected mice
# Parameters: species or system Plasmodium berghei
# Conditions: percent reduction in parasitemia day 3 post-infection; single 10 mg/kg po in 3% ethanol and 7% Tween 80; mice
# Outline: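 Groups of 3-5 Moro SPF or NMRI mice infected with the ANKA strain of P. berghei received a single dose of trioxolane on day one post-infection. The compound was given in 3% ethanol and 7% Tween 80 or in SSV (0.5% w/v CMC, 0.5% v/v benzyl alcohol, 0.4% v/v Tween 80, 0.9% w/v sodium chloride in water). Antimalarial activity was scored as percent reduction in parasitemia on day three and as survival time versus untreated controls. Survival to day 30 counted as cure.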
row,Compound,Activity (%) po [%]
1,c1ccc(C2CCC3(CC2)OOC2(O3)C3CC4CC(C3)CC2C4)cc1 (centres unmarked) [OZ27],99.97
2,CCCC1CCC2(CC1)OOC1(O2)C2CC3CC(C2)CC1C3 (centres unmarked) [OZ25],99.9

# Same assay, conditions: percent reduction in parasitemia day 3 post-infection; single 10 mg/kg sc in 3% ethanol and 7% Tween 80; mice
row,Compound,Activity (%) sc [%]
1,c1ccc(C2CCC3(CC2)OOC2(O3)C3CC4CC(C3)CC2C4)cc1 (centres unmarked) [OZ27],99.92
2,CCCC1CCC2(CC1)OOC1(O2)C2CC3CC(C2)CC1C3 (centres unmarked) [OZ25],99.97

# Same assay, conditions: percent reduction in parasitemia day 3 post-infection; single po dose in standard suspending vehicle (SSV); mice
row,Compound,Activity (%) SSVpo [%]
1,c1ccc(C2CCC3(CC2)OOC2(O3)C3CC4CC(C3)CC2C4)cc1 (centres unmarked) [OZ27],96
2,CCCC1CCC2(CC1)OOC1(O2)C2CC3CC(C2)CC1C3 (centres unmarked) [OZ25],96

# Same assay, conditions: single 10 mg/kg po in 3% ethanol and 7% Tween 80; untreated control 5.6 ± 0.3
row,Compound,Survival (days) po [days]
1,c1ccc(C2CCC3(CC2)OOC2(O3)C3CC4CC(C3)CC2C4)cc1 (centres unmarked) [OZ27],12.6
2,CCCC1CCC2(CC1)OOC1(O2)C2CC3CC(C2)CC1C3 (centres unmarked) [OZ25],8.4

# Same assay, conditions: single 10 mg/kg sc in 3% ethanol and 7% Tween 80; untreated control 5.6 ± 0.3
row,Compound,Survival (days) sc [days]
1,c1ccc(C2CCC3(CC2)OOC2(O3)C3CC4CC(C3)CC2C4)cc1 (centres unmarked) [OZ27],17.1
2,CCCC1CCC2(CC1)OOC1(O2)C2CC3CC(C2)CC1C3 (centres unmarked) [OZ25],16.5

# Same assay, conditions: single po dose in SSV; untreated control 5.6 ± 0.3
row,Compound,Survival (days) SSVpo [days]
1,c1ccc(C2CCC3(CC2)OOC2(O3)C3CC4CC(C3)CC2C4)cc1 (centres unmarked) [OZ27],8.0
2,CCCC1CCC2(CC1)OOC1(O2)C2CC3CC(C2)CC1C3 (centres unmarked) [OZ25],7.2

# Test system: Schistosoma mansoni 21-day-old schistosomules
# Assay: effect on 21-day-old schistosomules in mice
# Assay type: in vivo
# Conditions: single 200 mg/kg per os, female mice
# Experimental: All groups were killed 4 weeks after treatment and the liver and intestine were removed and separated. The liver and intestine were compressed and alive male and female worms could be seen and counted. The effect of the compounds was evaluated by mean total and female worm burden.
Compound,"% reduction of schistosomule growth at day 21 after per os application of 200 mg/kg, FWR (%)","% reduction of schistosomule growth at day 21 after per os application of 200 mg/kg, TWR (%)"
O=C(NC[C@H]1CC[C@]2(CC1)OO[C@]1(O2)C2CC3CC(C2)CC1C3)N1CCNCC1 [OZ329],90,90
CCCC1CCC2(CC1)OOC1(O2)C2CC3CC(C2)CC1C3 (centres unmarked) [OZ25],84,86

# Test system: P. falciparum K1 strain (Thailand resistant to chloroquine)
# Assay: semiautomated microdilution assay, [3H]-hypoxanthine incorporation, K1 strain
# Assay type: cell-based, Plasmodium falciparum
# Conditions: K1 strain, 72 h incubation
# Outline: as §1
row,Compound,IC50 (ng/ml) K1 [ng/mL]
1,O=C(NC[C@H]1CC[C@]2(CC1)OO[C@]1(O2)C2CC3CC(C2)CC1C3)N1CCNCC1 [OZ329],0.43
2,CCCC1CCC2(CC1)OOC1(O2)C2CC3CC(C2)CC1C3 (centres unmarked) [OZ25],1.1

# Same assay, conditions: Plasmodium falciparum; K1 strain, 72 h incubation; read-out: IC50 (ng/ml) K1
row,Compound,IC50 [ng/mL]
1,c1ccc(C2CCC3(CC2)OOC2(O3)C3CC4CC(C3)CC2C4)cc1 (centres unmarked) [OZ27],2.2
